Reference: publication PMC6891555, “Thuwalallenes A–E and Thuwalenynes A–C: New C15 Acetogenins with Anti-Inflammatory Activity from a Saudi Arabian Red Sea Laurencia sp” (Marine Drugs, 2019)
Entries after “also recorded” stand apart in the source; their conditions may differ.

Tests used:
[1] = Cytotoxicity by MTT assay in RAW 264.7 macrophages; assay type: cell-based, mouse; conditions: mouse, 72 h of treatment
Protocol: (§1) The IC50 values for the inhibition of NO production were determined in LPS-treated RAW 264.7 cells in comparison to cells treated with the vehicle (Carbowax 400) only (Table 3, Figure S1). To verify that the anti-inflammatory activity observed was not due to cytotoxic effect, the potential cytotoxicity of 1–6, 8, 10 and 11 was evaluated using the MTT assay following 24, 48 and 72 h of treatment in RAW 264.7 macrophages (Table 3, Figure S2).
(§2) Mouse macrophage cell line RAW 264.7 was cultured in DMEM medium (cat. # 21885-025, Gibco, Thermo Fisher Scientific, Waltham, MA, USA) supplemented with 10% heat inactivated fetal bovine serum (cat. # 10270-106, Gibco, Thermo Fisher Scientific, Waltham, MA, USA) and 1% penicillin-streptomycin (cat. # 15070-063, Gibco, Thermo Fisher Scientific, Waltham, MA, USA). Cells were cultured in 37 °C and 5% CO2. Each compound was diluted in Carbowax^TM 400 + 10% ethanol (cat. # 1.00983, Merck, Darmstadt, Germany), used also as control solvent. Final concentration in culture was 0.1% v/v carbowax and 0.01% v/v ethanol. RAW 264.7 macrophages were activated using 100 ng/mL lipopolysaccharide (LPS) (L2630, Merck, Darmstadt, Germany). In IC50 determination experiments, macrophages were pre-treated for 1 h with the respective compound prior to LPS stimulation.
(§3) 3.5 × 10^3 RAW 264.7 mouse macrophages were seeded in 96-well plate and cultured over night. Cells were subsequently treated with the respective compound concentration and incubated for 24, 48 and 72 h. Number of cells was measured prior to treatment and used as normalisation control. Thiazolyl Blue Tetrazolium Bromide (MTT) (A2231.001, Applichem GmbH, Darmstadt, Germany) was added to the cells in a final concentration of 0.5 mg/mL and then cells were incubated at 37 °C and 5% CO2 for 4 h. The supernatant was discarded and cells were lysed with 2-propanol (33539, Honeywell, Charlotte, NC, USA) with 0.4% HCl (30721, Merck, Darmstadt, Germany). The absorbance of each sample was measured in an automated microplate reader (Infinite 200 PRO, Tecan, Männedorf, Switzerland) at 600 nm. The average OD of each treated sample was normalized to the OD of the control sample and statistical analysis was performed using Graphpad Prism 7.0 (GraphPad Software, San Diego, CA, USA).

RAW 264.7 macrophages = assay: Cytotoxicity by MTT assay in RAW 264.7 macrophages; assay type: cell-based, mouse; conditions: for concentration above which cytotoxicity was observed: 72 h following treatment
Protocol: as §1, §2, §3

[2] = tested on: NO production in LPS-treated RAW 264.7 cells; assay: Inhibition of NO production (Griess reaction) in LPS-treated RAW 264.7 macrophages; assay type: cell-based, mouse; conditions: for IC50: Mus musculus, RAW264.7, LPS (100 ng/mL, 48 h)-treated RAW 264.7 cells, 1 h pre-treatment, Griess reaction, vs vehicle Carbowax 400; for anti-inflammatory activity (inhibition of NO production), in words: TLR4 (LPS) stimulated macrophages
Protocol: as §1, §2
30 × 10^4 RAW 264.7 mouse macrophages were plated in 24-well plates over-night with 0.5 mL complete medium. Cells were pretreated for 1 h with the respected compound concentration and then stimulated with 100 ng/mL LPS (L2630, Merck, Darmstadt, Germany) for 48 h. The amount of nitrite, an oxidative product of NO, was measured in culture supernatant of each sample using the Griess reaction. 100 μL of supernatant was mixed with 100 μL of sulfanilamide solution (1% sulfanilamide in 5% H3PO4) and incubated for 5 min at room temperature. Then, 100 μL of NED solution (0.1% N-1-napthylethylenediamine dihydrochlorite in H2O) was added and the absorbance was measured in an automated microplate reader (Infinite 200 PRO, Tecan, Männedorf, Switzerland) at 540 nm. Nitrite concentration was calculated using a sodium nitrite standard curve. All incubations were performed in the dark.

[3] = Stability of isolated metabolites (observation); assay type: physicochemical; conditions: reason why bioactivity was not evaluated

| IC50 [2] | stability of the metabolite, in words [3] | SMILES | IC50 at 72 h [1] | concentration above which cytotoxicity was observed (RAW 264.7 macrophages) | cytotoxicity, in words (RAW 264.7 macrophages) | anti-inflammatory activity (inhibition of NO production), in words [2] | concentration above which significant cytotoxicity was observed (RAW 264.7 macrophages) | IC50 [1] |
| --- | --- | --- | --- | --- | --- | --- | --- | --- |
| 13.2 ± 0.57 µM |  | CC[C@@H]1O[C@@H]2C[C@@H]3O[C@@H]3C[C@H](C=C=CBr)O[C@@H]2C[C@H]1Br (relative stereo) [Compound 2, Thuwalallene B] | > 31.2 µM | > 31.25 µM |  |  |  |  |
| 4.18 ± 0.48 µM |  | CC[C@@H]1O[C@@H]2C/C=C\C[C@H](C=C=CBr)O[C@@H]2C[C@H]1Br (relative stereo) [Compound 3, Thuwalallene C] | > 15.6 µM | higher than 15.62 μM |  |  |  |  |
| > 62.5 µM |  | C#C/C=C\C[C@@H]1O[C@@H]2C[C@@H](Br)[C@H](CC)O[C@@H]2C[C@@H]1Br (relative stereo) [Compound 4, Thuwalenyne A] | > 62.5 µM |  | did not exhibit anti-inflammatory activity or cytotoxicity | did not exhibit any activity; also recorded: did not exhibit anti-inflammatory activity |  |  |
| 37.4 ± 2.51 µM |  | C#C/C=C\CC(Br)[C@H]1C[C@H]2O[C@@H](CC)[C@H](Br)C[C@H]2O1 (relative stereo) [Compound 6, Thuwalenyne B] | > 15.6 µM | higher than 15.62 μM |  |  |  |  |
|  | proven to be unstable | C#C/C=C\C/C=C\C[C@H]1O[C@@H](CC)[C@H](Br)C[C@H]1O (relative stereo) [Compound 7, Thuwalenyne C] |  |  |  |  |  |  |
| 12.4 ± 1.04 µM |  | CCC1OC2CC(C(O)CC(Cl)C=C=CBr)OC2CC1Br (centres unmarked) [Compound 5, Thuwalallene D] | > 15.6 µM | higher than 15.62 μM |  |  |  |  |

The next lines start with the compound.

| SMILES | IC50 [2] | stability of the metabolite, in words [3] | IC50 at 72 h [1] | concentration above which cytotoxicity was observed (RAW 264.7 macrophages) | cytotoxicity, in words (RAW 264.7 macrophages) | anti-inflammatory activity (inhibition of NO production), in words [2] | concentration above which significant cytotoxicity was observed (RAW 264.7 macrophages) | IC50 [1] |
| --- | --- | --- | --- | --- | --- | --- | --- | --- |
| CCC1OC2CC3OC3CC(C=C=CBr)OC2CC1Br (centres unmarked) [Compound 1, Thuwalallene A] | 26 ± 3.73 µM |  | > 15.6 µM | higher than 15.62 μM |  |  |  |  |
| CCC(Br)C1CC2OC(C=C=CBr)CC=CCC2O1 (centres unmarked) [Compound 8, Thuwalallene E] | 3.98 ± 0.6 µM |  | > 7.81 µM | ≥ 7.81 µM |  |  |  |  |
| CC(C)(O)[C@H]1CC[C@](C)([C@@H](O)CC[C@](C)(O)[C@H]2CC[C@H]3O[C@@H]([C@]4(C)CC[C@@H](Br)C(C)(C)O4)CC[C@]3(C)O2)O1 [Compound 10, thyrsiferol] |  |  | > 0.1 µM |  | without significant cytotoxicity | IC50 values in the low nM scale | above 100 nM |  |
| CC(=O)OC(C)(C)C1CCC(C)(C(O)CCC(C)(O)C2CCC3OC(C4(C)CCC(Br)C(C)(C)O4)CCC3(C)O2)O1 (centres unmarked) [Compound 11, 23-acetylthyrsiferol] | 0.00263 µM |  |  |  | without significant cytotoxicity | IC50 values in the low nM scale | above 10 nM | > 0.01 µM |
